From patent publication US20250228824A1, “COMPOSITIONS AND METHODS FOR INHIBITION OF ITO AS TREATMENT FOR THE J WAVE SYNDROMES AND HYPOTHERMIA” (Lankenau Institute for Medical Research, priority 2021, published 2025)

Assays:
KV11.1 (hERG-IKr) = biological target: T1, KV11.1 (hERG-IKr) (Homo sapiens, UniProt Q12809); experiment: Whole-cell patch clamp of IKr in HEK cells stably expressing hERG; format: cell-based; conditions: 50 μM
T1 construct: stably expressing hERG channels (NM_000238); expressed in transfected cells
Description: Human Embryonic Kidney (HEK) cells stably expressing hERG channels (NM_000238) were used to evaluate the effect of AR-787 on IKr. The HEK cells were cultured in vented flasks using standard methods. The culture media consisted of MEM α-modified, 10% FBS, 1% L-glutamine, 1% pen-strep and 0.4% G418 (Geneticin). Cells were passaged at 50% confluence.
For electrophysiological study, cells were released from culture with trypsin, rinsed with Ca^2+-free external solution and maintained on ice until used (up to 4 hr). An aliquot of cells was place in a chamber on an inverted microscope (Nikon Diaphot) and perfused with external solution at a rate of 1 ml/min at room temperature. The external solution contained in (mM): 140 NaCl, 5 KCl, 2 CaCl2, 1 MgCl2, 10 HEPES and 10 glucose at pH 7.4 (adjusted with NaOH). Membrane currents recorded with an Axopatch 200B amplifier controlled by Clampex software were digitized at a sampling rate of 10 kHz and filtered at 2 kHz. Micropipettes were fabricated from borosilicate glass and generally had resistances of 1.8-2.4 MΩ when filled with internal solution consisting of (mM): 140 KCl, 1 MgCl2, 5 Na2ATP, 10 HEPES and 10 EGTA (pH 7.3 adjusted with KOH; 300 mOsm). Pipette offset and stray capacitance were compensated with the pipette in the bath solution before seal formation. After achieving cell access, whole-cell capacitance and series resistance were compensated optimally. Series resistance prediction and correction were usually adjusted to 85% or higher leaving an uncompensated series resistance of less than 1 MΩ and voltage errors estimated to be less than 5 mV. Voltage protocols and currents were recorded on a computer for offline analysis using Clampfit and GraphPad software.
IKr was measured using a two-step protocol. Voltage steps of 4 sec duration were applied at 20 sec intervals from a holding potential of −80 mV to −60 to +40 mV in 10 mV steps, followed by a 4 sec step to −50 mV to record the tail currents. […] The step protocol consisted of a voltage step from a holding potential of −80 mV to a test potential of +10 mV for 4 sec then to −50 mV for 4 second. It was repeated at 20 sec intervals. The step protocol was maintained until the current response achieved a stable level (5-7 min). The I-V protocol was then repeated.
For analysis, the following were determined: 1) currents averaged over the last 100 ms of the first voltage clamp step (−60 to +40 mV) and 2) peak tail current during the second voltage clamp step (at −50 mV). These were divided by cell capacitance to normalize for cell size (pA/pF). The time course of tail current […] was fit with a single exponential function using Clampfit. The voltage dependence of activation was determined from tail currents by dividing current value at each voltage by the maximum value for each I-V protocol. Values of current were averaged among cells and expressed as a mean ±SEM.

[1] = system: coronary-perfused canine right (RV) and left (LV) ventricular wedge models of JWS; experiment: Coronary-perfused ventricular wedge models of the J wave syndromes (NS5806 alone or with verapamil); parameters: QT interval / T wave amplitude / Epi (APD50) / Epi (APD90): unit not given here
Description: Ten hearts from purpose-bred adult male mongrel dogs (20-22 kg) were acquired from Covance (Denver, PA) and another 10 hearts from purpose-bred adult male Beagle dogs (10-16 kg) were obtained from Envigo (Denver, PA). Dogs were sedated with ketamine (10 mg/kg, IM) and xylazine 2 (mg/kg, IM). Prior to euthanasia (Euthasol solution: pentobarbital sodium and phenytoin sodium; 0.22 ml/kg, IV), and heparin (human pharmaceutical grade, 1,000 U/kg, IV) were administered 3-4 min before isolation of the hearts via a left thoracotomy. Retrograde aortic perfusion of the hearts with ice-cold cardioplegic solution (modified K-H solution; 16 mM KCl) was immediately performed to rinse the coronary vasculature of blood. The hearts were then placed in a sealed container containing ice-cold cardioplegic solution and transported to our institution via private courier in an insulated package filled with icepacks.
Transmural wedges were dissected from the base of the RV and LV. During the cannulation procedure, preparations were initially arterially perfused with cardioplegic solution. Next, the wedge preparations were placed in a tissue bath and perfused with a modified Krebs-Henseleit solution (K—H) bubbled with 95% O2/5% CO2 warmed to 37° C. The composition of K—H was (in mM): 118 NaCl, 4 KCl, 2 CaCl2, 1.2 MgSO4, 24 NaHCO3, 1.2 NaH2PO4, 2 Na Pyruvate and 10 D-Glucose. The perfusate was delivered at a constant pressure (45-50 mmHg). A transmural pseudo-ECG (ECG) was recorded using two Ag/AgCl half cells placed at ˜1 cm from the Epi (+) and Endo (−) surfaces along the same axis as the transmembrane action potential (AP) recordings. APs were simultaneously recorded from the immediate sub-Epi and M cell region (˜2-3 mm from the Endo surface) using floating glass microelectrodes. Pacing was applied to the Endo surface using bipolar silver electrodes insulated except at the tips (Basic Cycle Lengths [BCLs]: 500-2,000 ms). A detailed description of the arterially-perfused ventricular wedge preparation has been previously published.^5 ECG and AP signals were digitized and analyzed using Spike 2 for Windows (Cambridge Electronic Design, Cambridge, UK).
We used the Ito-agonist NS5806 (5-10 μM) alone or with the calcium-channel blocker verapamil (2.5 μM) to pharmacologically mimic the effects of the ion channel genetic defects underlying ERS and BrS. These provocative agents were added to the coronary perfusate in increasing concentrations until the characteristic ECG phenotypes were unmasked, including phase 2 reentry (P2R), closely coupled premature beats (CCPBs) and/or pVT/VF. AR-787 was added to the perfusate to test its ability to suppress or prevent arrhythmogenesis.

[2] = AR-787 10 μM following NS5806 5-10 μM, 3 LV wedges, BCL 800 msec

T1 sequence (Q12809 whole entry): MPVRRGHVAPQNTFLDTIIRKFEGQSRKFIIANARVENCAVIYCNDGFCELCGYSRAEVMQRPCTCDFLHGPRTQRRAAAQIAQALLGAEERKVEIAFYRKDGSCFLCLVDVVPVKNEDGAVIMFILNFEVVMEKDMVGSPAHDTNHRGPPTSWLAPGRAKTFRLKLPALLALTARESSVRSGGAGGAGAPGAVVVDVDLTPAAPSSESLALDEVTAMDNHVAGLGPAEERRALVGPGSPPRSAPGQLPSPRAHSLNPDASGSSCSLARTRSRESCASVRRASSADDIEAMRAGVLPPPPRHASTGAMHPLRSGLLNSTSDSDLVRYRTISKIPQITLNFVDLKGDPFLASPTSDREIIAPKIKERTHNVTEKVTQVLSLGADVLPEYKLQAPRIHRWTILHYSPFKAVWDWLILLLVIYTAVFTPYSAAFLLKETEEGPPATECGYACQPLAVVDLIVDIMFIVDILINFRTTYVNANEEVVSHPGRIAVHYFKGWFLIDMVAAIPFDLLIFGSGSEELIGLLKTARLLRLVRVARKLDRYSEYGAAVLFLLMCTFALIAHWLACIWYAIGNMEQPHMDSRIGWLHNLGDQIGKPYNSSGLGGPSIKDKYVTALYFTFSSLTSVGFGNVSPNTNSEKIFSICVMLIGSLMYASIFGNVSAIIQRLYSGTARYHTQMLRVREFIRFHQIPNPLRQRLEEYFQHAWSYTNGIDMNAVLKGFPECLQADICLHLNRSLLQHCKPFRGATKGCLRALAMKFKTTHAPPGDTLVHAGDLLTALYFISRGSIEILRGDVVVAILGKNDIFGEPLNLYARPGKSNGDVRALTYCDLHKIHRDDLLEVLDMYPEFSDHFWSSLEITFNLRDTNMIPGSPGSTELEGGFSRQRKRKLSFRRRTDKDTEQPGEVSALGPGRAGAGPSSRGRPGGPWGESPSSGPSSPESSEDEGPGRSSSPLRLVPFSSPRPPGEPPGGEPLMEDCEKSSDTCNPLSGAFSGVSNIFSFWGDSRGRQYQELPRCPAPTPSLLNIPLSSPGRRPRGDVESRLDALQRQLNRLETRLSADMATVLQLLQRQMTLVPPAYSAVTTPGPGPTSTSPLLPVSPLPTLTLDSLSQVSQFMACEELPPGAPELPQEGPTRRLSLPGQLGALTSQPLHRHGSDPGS

Cc1nc(-n2cccc2)sc1C(=O)N=c1[nH]c2ccccc2[nH]1 [AR-787, N-(1H-benzimidazol-2-yl)-4-methyl-2-pyrrol-1-yl-thiazole-5-carboxamide]
amplitude of the developing IKr (KV11.1 (hERG-IKr)): enhanced between −60 to −20 mV and reduced above 0 mV | rates of inactivation of IKr tail currents (KV11.1 (hERG-IKr)): significantly slowed at positive voltages | reduction in IKr peak tail current (KV11.1 (hERG-IKr)): 50% | shift in the voltage dependence of both developing and tail currents (IKr) (KV11.1 (hERG-IKr)): −20 mV | shift of voltage-dependence of activation (IKr) (KV11.1 (hERG-IKr)): −25 mV | effect on NS5806-induced J wave syndrome phenotype ([1]; AR-787 10 μM after NS5806 5-10 μM): reversed these effects induced by NS5806 | Epi (APD50) [1, 2]: 173.9 ± 7.8 | Epi (APD90) [1, 2]: 209.0 ± 8.1 | J wave amplitude [1, 2]: 8.7 ± 5.7 | M (APD50) [1, 2]: 179.0 ± 11.4 | M (APD90) [1, 2]: 235.0 ± 11.1 | Ph1 mag (% Ph0) [1, 2]: 25.4 ± 4.9 % Ph0 | QT interval [1, 2]: 254.3 ± 10.0 | T wave amplitude [1, 2]: 19.0 ± 1.8 | manifestation of AP notch and ECG J wave ([1]; AR-787 1, 10 and 50 μM after NS5806 10 μM, LV and RV wedges): concentration-dependent diminution in the manifestation of the AP notch and associated ECG J wave | QT interval ([1]; AR-787 1, 10 or 50 μM, NS5806 5-10 μM, five wedges): unaffected | effect on NS5806-augmented Epi Ph1 magnitude and J wave amplitude ([1]; AR-787 1, 10 or 50 μM, NS5806 5-10 μM, five wedges (4 LV and 1 RV)): readily reversed the effect of NS5806 | ECG and arrhythmic manifestations (extrasystole, polymorphic VT) in ERS model ([1]; LV wedge, NS5806 10 μM and verapamil 2.5 μM, AR-787 10 μM, 30 min): reduced Phase 1 magnitude, restored the AP dome and totally suppressed all arrhythmic activity | restoration of AP dome and suppression of Phase 2 reentry extrasystoles ([1]; RV wedge, 40 min NS5806 10 μM, AR-787 50 μM but not 10 μM): effective in fully restoring the AP dome and in totally suppressing this arrhythmic activity
